Data: patent publication US20240309003A1, “HETEROCYCLIC COMPOUNDS AS TRIGGERING RECEPTOR EXPRESSED ON MYELOID CELLS 2 AGONISTS AND METHODS OF USE” (Vigil Neuroscience, Inc., priority 2021, published 2024)

Biological target: T1, human TREM2 (Homo sapiens, UniProt Q9NZC2)
T1 construct: expressed in transfected cells; host or cells: HEK293T
Test: TREM2 agonist potency by cellular phosphorylation of Syk (AlphaLisa) in HEK293T-hTREM2 cells
Format: cell-based
Conditions: HEK293 cells expressing human TREM2 and DAP12, Table D
Outline: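 Agonist EC50 from a variable-slope four-parameter fit of % activation, based on AlphaLisa phospho-Syk levels in lysates. Cells: HEK293T-hTREM2 (with DAP12), treated 45 min at room temperature with compound in assay buffer.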

T1 sequence (Q9NZC2 19-230): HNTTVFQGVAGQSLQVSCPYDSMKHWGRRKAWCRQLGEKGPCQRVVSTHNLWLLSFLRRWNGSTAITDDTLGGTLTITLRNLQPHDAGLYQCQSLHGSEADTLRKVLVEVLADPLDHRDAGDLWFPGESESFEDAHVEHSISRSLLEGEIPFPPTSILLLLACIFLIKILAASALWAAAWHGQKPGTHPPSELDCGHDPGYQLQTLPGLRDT
T1 sequence (O43914 22-113 partner): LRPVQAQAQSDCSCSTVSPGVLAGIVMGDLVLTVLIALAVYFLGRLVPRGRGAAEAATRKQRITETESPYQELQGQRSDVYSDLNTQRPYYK

SMILES	EC50 [nM]
Cc1nc2nc(N3CCO[C@@H](c4cc[nH]c(=O)c4)C3)nc(-c3ccc(C(F)(F)F)nc3)c2nc1C [Example 195, (S)-4-(4-(6,7-dimethyl-4-(6-(trifluoromethyl)pyridin-3-yl)pteridin-2-yl)morpholin-2-yl)pyridin-2(1H)-one]	< 50
Cc1cnc2c(C34CC(C(F)(F)F)(C3)C4)nc(N3C[C@@H](c4cnn(C5CC5)c4)O[C@@H](C)C3)nc2n1 [Example 125, (2R,6S)-2-(1-cyclopropyl-1H-pyrazol-4-yl)-6-methyl-4-(7-methyl-4-(3-(trifluoromethyl)bicyclo[1.1.1]pentan-1-yl)pteridin-2-yl)morpholine]	< 50
Cc1cnc2c(-c3ccc(Cl)cc3F)nc(N3C[C@@H](C)O[C@@H](c4cnn(C5CC5)c4)C3)nc2n1 [Example 117, (2S,6R)-4-(4-(4-chloro-2-fluorophenyl)-7-methylpteridin-2-yl)-2-(1-cyclopropyl-1H-pyrazol-4-yl)-6-methylmorpholine]	< 50
[2H]C1([2H])C[C@H](c2nc(-c3ccc(Cl)cc3F)c3nc(C)c(C)nc3n2)C[C@H](c2cnn(C3CC3)c2)O1 [Example 188, 4-(4-chloro-2-fluorophenyl)-2-((2R,4S)-2-(1-cyclopropyl-1H-pyrazol-4-yl)tetrahydro-2H-pyran-4-yl-6,6-d2)-6,7-dimethylpteridine]	< 50
Cc1nc2nc([C@H]3CCO[C@@H](c4cnn(C5CC5)c4)C3)nc(C3CCCCC3)c2nc1C [Example 247, 4-cyclohexyl-2-((2R,4S)-2-(1-cyclopropyl-1H-pyrazol-4-yl)tetrahydro-2H-pyran-4-yl)-6,7-dimethylpteridine]	< 50
Cc1nc2cc([C@H]3CCO[C@@H](c4cnn(C5CC5)c4)C3)nc(-c3ccc(F)cc3F)c2nc1C [Example 210, 7-((2R,4S)-2-(1-cyclopropyl-1H-pyrazol-4-yl)tetrahydro-2H-pyran-4-yl)-5-(2,4-difluorophenyl)-2,3-dimethylpyrido[3,4-b]pyrazine]	< 50
Cc1nc2nc(N3CCN(C)[C@H](c4cnn(C5CC5)c4)C3)nc(-c3ccc(Cl)cc3F)c2nc1C [Example 207, (R)-4-(4-chloro-2-fluorophenyl)-2-(3-(1-cyclopropyl-1H-pyrazol-4-yl)-4-methylpiperazin-1-yl)-6,7-dimethylpteridine]	< 50
Cc1cc2c(-c3ccc(Cl)cc3F)cc([C@H]3CCO[C@@H](c4cnn(C5CC5)c4)C3)nc2nc1C [Example 233, 5-(4-chloro-2-fluoro-phenyl)-7-[(2R,4S)-2-(1-cyclopropylpyrazol-4-yl)tetrahydropyran-4-yl]-2,3-dimethyl-1,8-naphthyridine]	< 50
Cc1cc([C@@H]2C[C@H](c3cc(-c4ccc(Cl)c(F)c4F)c4cc(C)c(C)nc4n3)CCO2)ccn1 [Example 187, 5-(4-chloro-2,3-difluorophenyl)-2,3-dimethyl-7-((2S,4R)-2-(2-methylpyridin-4-yl)tetrahydro-2H-pyran-4-yl)-1,8-naphthyridine]	< 50
COc1cccc([C@H]2C[C@@H](c3nc(-c4ccc(F)cc4F)c4nc(C)c(C)nc4n3)CCO2)n1 [Example 165, 4-(2,4-difluorophenyl)-2-((2R,4S)-2-(6-methoxypyridin-2-yl)tetrahydro-2H-pyran-4-yl)-6,7-dimethylpteridine]	50 to 500
COc1ccc([C@H]2C[C@@H](c3nc(-c4ccc(F)cc4F)c4nc(C)c(C)nc4n3)CCO2)cn1 [Example 163, 4-(2,4-difluorophenyl)-2-((2R,4S)-2-(6-methoxypyridin-3-yl)tetrahydro-2H-pyran-4-yl)-6,7-dimethylpteridine]	50 to 500
[2H]C1([2H])C[C@@H](c2nc(-c3ccc(Cl)cc3F)c3nc(C)c(C)nc3n2)C[C@@H](c2cnn(C3CC3)c2)O1 [Example 189, 4-(4-chloro-2-fluorophenyl)-2-((2S,4R)-2-(1-cyclopropyl-1H-pyrazol-4-yl)tetrahydro-2H-pyran-4-yl-6,6-d2)-6,7-dimethylpteridine]	50 to 500
Cc1cnc2c(-c3ccc(Cl)cc3F)nc([C@H]3C[C@@H](c4cnn(C5CC5)c4)O[C@@H](C)C3)nc2n1 [Example 128, 4-(4-chloro-2-fluorophenyl)-2-((2S,4R,6S)-2-(1-cyclopropyl-1H-pyrazol-4-yl)-6-methyltetrahydro-2H-pyran-4-yl)-7-methylpteridine]	< 50
Cc1nc2nc(C3C[C@@H](C)O[C@@H](c4cn[nH]c4)C3)nc(-c3ccc(F)cc3F)c2nc1C (stereo partly drawn) [Example 168]	50 to 500
Cc1cnc2c(-c3ccc(F)cc3F)nc(N3C[C@@H](c4cnn(C5CC5)c4)O[C@@H](C)C3)cc2n1 [Example 208, (2R,6S)-2-(1-cyclopropyl-1H-pyrazol-4-yl)-4-(5-(2,4-difluorophenyl)-2-methylpyrido[3,4-b]pyrazin-7-yl)-6-methylmorpholine]	500 to 3000
Cc1cc([C@@H]2C[C@H](c3cc4nc(C)c(C)cc4c(-c4ccc(Cl)cc4F)n3)CCO2)ccn1 [Example 225, 5-(4-chloro-2-fluorophenyl)-2,3-dimethyl-7-((2S,4R)-2-(2-methylpyridin-4-yl)tetrahydro-2H-pyran-4-yl)-1,6-naphthyridine]	500 to 3000
Cc1ccc2c(-c3ccc(C(F)(F)F)cc3)nc([C@H]3CCO[C@@H](c4cnn(C5CC5)c4)C3)nc2n1 [Example 217, 2-((2R,4S)-2-(1-cyclopropyl-1H-pyrazol-4-yl)tetrahydro-2H-pyran-4-yl)-7-methyl-4-(4-(trifluoromethyl)phenyl)pyrido [2,3-d]pyrimidine]	< 50
Cc1cc([C@H]2C[C@@H](c3nc(-c4ccc(Cl)c(F)c4F)c4ncc(C)nc4n3)CCO2)ccn1 [Example 130, 4-(4-chloro-2,3-difluorophenyl)-7-methyl-2-((2R,4S)-2-(2-methylpyridin-4-yl)tetrahydro-2H-pyran-4-yl)pteridine]	< 50

Same assay, conditions: HEK293 cells expressing human TREM2 and DAP12, Table D-2

SMILES	EC50 [nM]
Cc1nc2nc(N3C[C@@H](C)O[C@@H](c4cnn(C5CC5)c4)C3)nc([C@H]3C[C@H](C(F)(F)F)C3)c2nc1C [Example I-1365, (2S,6R)-2-(1-cyclopropylpyrazol-4-yl)-4-[6,7-dimethyl-4-[3-(trifluoromethyl)cyclobutyl]pteridin-2-yl]-6-methyl-morpholine]	< 50
Cc1nc2nc([C@H]3CCO[C@@H](c4cnn(C56CC(C5)C6)c4)C3)nc(-c3ccc(F)cc3F)c2nc1C [Example I-1668, 2-[(2R,4S)-2-[1-(1-bicyclo [1.1.1]pentanyl)pyrazol-4-yl]tetrahydropyran-4-yl]-4-(2,4-difluorophenyl)-6,7-dimethyl-pteridine]	< 50
Cc1nc2nc(C3CCO[C@@H](c4cnn(C5CC5)c4)C3)nc(-c3cc(C(F)(F)F)c(F)cc3F)c2nc1C (stereo partly drawn) [Example I-1585, 2-((2R)-2-(1-cyclopropyl-1H-pyrazol-4-yl)tetrahydro-2H-pyran-4-yl)-4-(2,4-difluoro-5-(trifluoromethyl)phenyl)-6,7-dimethylpteridinee]	< 50
Cc1nc2cc([C@H]3CCO[C@@H](c4cnn(C5CC5)c4)C3)nc(-c3ccc(F)cc3F)c2nc1COCC1COC1 [Example I-1505, 7-((2R,4S)-2-(1-cyclopropyl-1H-pyrazol-4-yl)tetrahydro-2H-pyran-4-yl)-5-(2,4-difluorophenyl)-2-methyl-3-((oxetan-3-ylmethoxy)methyl)pyrido[3,4-b]pyrazine]	500 to 3000
COCn1cc([C@H]2CN(c3nc(-c4ccc(F)cc4F)c4nc(C)c(C)nc4n3)C[C@@H](C)O2)cn1 [Example I-1441, (2S,6R)-4-[4-(2,4-difluorophenyl)-6,7-dimethyl-pteridin-2-yl]-2-[1-(methoxymethyl)pyrazol-4-yl]-6-methyl-morpholine]	< 50
Cc1cc(-c2nc(N3C[C@@H](C)O[C@@H](c4cnn(C5CC5)c4)C3)nc3nc(C)c(C)nc23)on1 [Example I-1086, (2S,6R)-2-(1-cyclopropylpyrazol-4-yl)-4-[6,7-dimethyl-4-(3-methylisoxazol-5-yl)pteridin-2-yl]-6-methyl-morpholine]	500 to 3000
Cc1nc2nc([C@H]3CCO[C@@H](c4cnn(C5CC5)c4)C3)nc(-c3ccc4c(c3)CCC4)c2nc1C (stereo in doubt) [Example I-1170, 4-indan-5-yl-6,7-dimethyl-2-[(2R,4S)-2-(1-cyclopropylpyrazol-4-yl)tetrahydropyran-4-yl]pteridine]	< 50
Cc1nc2nc([C@H]3CCO[C@@H](c4cnn(C5CC5)c4)C3)nc(-c3ccc(C4CCC4)cc3F)c2nc1C [Example I-1182, 4-(4-cyclobutyl-2-fluoro-phenyl)-2-[(2R,4S)-2-(1-cyclopropylpyrazol-4-yl)tetrahydropyran-4-yl]-6,7-dimethyl-pteridine]	500 to 3000
COc1nc2c(-c3ccc(C(F)(F)F)cc3F)nc([C@H]3CCO[C@@H](c4cnn(C5CC5)c4)C3)nc2nc1C (stereo in doubt) [Example I-1691, 2-((2R,4S)-2-(1-cyclopropyl-1H-pyrazol-4-yl)tetrahydro-2H-pyran-4-yl)-4-(2-fluoro-4-(trifluoromethyl)phenyl)-6-methoxy-7-methylpteridine]	< 50
Cc1nc2c(-c3ccc(C(F)(F)F)cc3F)cn([C@H]3CCO[C@@H](c4cnn(C5CC5)c4)C3)c(=O)c2nc1C [Example I-1567, 6-[(2R,4S)-2-(1-cyclopropyl-1H-pyrazol-4-yl)tetrahydro-2H-pyran-4-yl]-8-[2-fluoro-4-(trifluoromethyl)phenyl]-2,3-dimethylpyrido[3,4-b]pyrazin-5(6H)-one]	3000 to 100000
Cc1nc2nc(N3C[C@@H](C)O[C@@H](c4cnn(C5CC5)c4)C3)nc(-c3ccc(F)cc3F)c2nc1C(F)F [Example I-1609, (2S,6R)-2-(1-cyclopropylpyrazol-4-yl)-4-[6-(difluoromethyl)-4-(2,4-difluorophenyl)-7-methyl-pteridin-2-yl]-6-methyl-morpholine]	< 50
Cc1nc2nc([C@H]3CCO[C@H](c4cnc(C5CC5)o4)C3)nc(-c3ccc(F)cc3F)c2nc1C [Example I-1698, 2-cyclopropyl-5-[(2S,4S)-4-[4-(2,4-difluorophenyl)-6,7-dimethyl-pteridin-2-yl]tetrahydropyran-2-yl]oxazole]	50 to 500
